Experimental data reported in paper PMC7618597, “Dual Nurr1/RXR agonism of valerenic acid and synthetic mimetics enables dimer-selective Nurr1 modulation” (ACS medicinal chemistry letters, 2025).

Target: T1, full-length Nurr1 monomer (NBRE) (Homo sapiens, UniProt P43354)
T1 construct: full-length human nuclear receptor Nurr1 encoded by pcDNA3.1 -hNurr1-NE; host or cells: HEK293T
Assay: Full-length Nurr1 reporter gene assay, monomer response element NBRE
Type: cell-based
Experimental: Based on these findings, we next determined the effects of 2 and 3 on Nurr1 activity in a cellular setting using reporter constructs for the NGFI-B response element (NBRE), the Nur response element (NurRE), and the direct repeat 5 (DR5)[36]. All three response elements are robustly activated by common Nurr1 agonists[4],[31]. […]
modified Eagle’s medium (DMEM), high glucose supplemented with 10% fetal calf serum (FCS), sodium pyruvate (1 mM), penicillin (100 U/mL), and streptomycin (100 μg/mL) at 37 °C and 5% CO2 and seeded in 96-well plates (3×10^4 cells/well). […] Five hours after transfection, the cells were incubated with the test compounds in Opti-MEM supplemented with penicillin (100 U/mL), streptomycin (100 μg/mL), and 0.1% DMSO for 15 h before luciferase activity was measured using the Dual -Glo Luciferase Assay System (Promega) according to the manufacturer’s protocol on a Tecan Spark l uminometer (Tecan Deutschland GmbH, Germany). Firefly luminescence was divided by Renilla luminescence and multiplied by 1000, resulting in relative light units (RLU) to normalize for transfection efficiency and cell growth. […]
Reporter gene assays for full-length human Nurr1 and RXR. […] Firefly luminescence was divided by Renilla luminescence and multiplied by 1000, resulting in relative light units (RLU) to normalize for transfection efficiency and cell growth. […]

T1 sequence (P43354 whole entry): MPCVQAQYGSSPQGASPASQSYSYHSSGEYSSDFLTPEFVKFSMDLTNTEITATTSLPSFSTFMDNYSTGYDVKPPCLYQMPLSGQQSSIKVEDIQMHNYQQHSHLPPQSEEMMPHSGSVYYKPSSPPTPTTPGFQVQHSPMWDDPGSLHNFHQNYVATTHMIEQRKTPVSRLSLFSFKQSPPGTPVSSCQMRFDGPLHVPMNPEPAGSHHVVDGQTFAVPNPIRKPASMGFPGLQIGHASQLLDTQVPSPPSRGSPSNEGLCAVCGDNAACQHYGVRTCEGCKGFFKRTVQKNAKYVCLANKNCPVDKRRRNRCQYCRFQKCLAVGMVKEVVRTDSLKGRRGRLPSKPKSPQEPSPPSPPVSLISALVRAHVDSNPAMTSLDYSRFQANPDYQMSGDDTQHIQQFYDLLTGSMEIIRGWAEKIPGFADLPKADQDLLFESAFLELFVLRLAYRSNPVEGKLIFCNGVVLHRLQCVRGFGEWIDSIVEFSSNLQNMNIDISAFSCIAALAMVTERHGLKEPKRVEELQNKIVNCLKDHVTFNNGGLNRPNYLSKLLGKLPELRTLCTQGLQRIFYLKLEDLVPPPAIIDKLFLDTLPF

`Cc1c2c(n(-c3ccc(CC(=O)O)cc3)c1C)CCC(F)(F)C2` [compound 2] was tested. Which “activation on NBRE” value did it give?
The value was “no activation was detectable”.

For `Cc1c(C)n(-c2ccc(CC(=O)O)cc2)c2ccc(F)cc12` [compound 3], which “activation on NBRE” value is on record?
The value was “no activation was detectable”.
